From patent US7033598B2, “Methods and apparatus for enhanced and controlled delivery of a biologically active agent into the central nervous system of a mammal” (Intrabrain International N.V., priority 1995, dated 2006)

Settings: transnasal iontophoresis +3.0 mA, 60 minutes; exsanguinated rabbits
Description: The drug was administered by two nasal electrodes that were each deep inserted in the nasal passages. The receptor electrode was positioned at the back of the animal's head. The animal was prior to delivery exsanguinated so that drug transport via the systemic compartment to the brain cannot occur.
The receptor electrode used in the experiments was saturated with a 0.9% NaCl solution. The iontophoresis apparatus used in these experiment was an Endomed 581 (Enraf Nonius, Delft, The Netherlands) iontophoresis device.
Seven of the nine animals were treated “actively” by means of transnasal iontophoresis. A medium frequency, interrupted direct current with a strength of +3.0 mA was applied to the electrodes immediately after the exsanguination was completed. The remaining two animals functioned as controls of the method and no current was supplied to their electrodes. The experiment lasted 60 minutes.

Structure (SMILES): Cl.Nc1c2c(nc3ccccc13)CCCC2.O [Tacrine hydrochloride, 9-amino-1,2,3,4-tetrahydroacridine hydrochloride monohydrate]
- migration distance under the applied electric field: 5-6 cm
